Columns and labels:
Type in all cases: cell-based
[1] = target: T1, 17β-hydroxysteroid dehydrogenase type 1 (17β-HSD type 1) (Homo sapiens, UniProt P14061); test: Inhibition of 17β-HSD type 1 in MCF-7 cells stably expressing the isoenzyme (tritium labeled estrone conversion, HPLC); conditions: MCF-7 cells expressing 17β-HSD type 1, 2 nM tritium labeled estrone; for inhibition at 1 µM / inhibition at 10 µM: MCF7; for inhibition at 1 µM / % Inhibition HSD1 1 μM: 1 μM test compound; for inhibition at 1 µM: read-out: % Inhibition HSD1 1 μM; for inhibition at 10 µM / % Inhibition HSD1 10 μM: 10 μM test compound; for inhibition at 10 µM: read-out: % Inhibition HSD1 10 μM
T1 construct: expressed in transfected cells; host or cells: MCF-7
T1 sequence (P14061 1-328): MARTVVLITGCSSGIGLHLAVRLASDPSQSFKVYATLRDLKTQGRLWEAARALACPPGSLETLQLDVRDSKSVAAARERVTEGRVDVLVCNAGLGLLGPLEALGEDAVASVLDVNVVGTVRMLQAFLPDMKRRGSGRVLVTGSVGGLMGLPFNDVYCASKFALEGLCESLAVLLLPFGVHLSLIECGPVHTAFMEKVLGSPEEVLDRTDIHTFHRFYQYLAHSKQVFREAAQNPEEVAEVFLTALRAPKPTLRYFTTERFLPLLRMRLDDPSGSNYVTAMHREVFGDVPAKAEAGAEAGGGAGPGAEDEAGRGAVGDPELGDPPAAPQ
Summary of the method: (§1)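 Cells: stable MCF-7 transfectants per isoenzyme. Step one, add compound (two concentrations) plus 2 nM labelled substrate to growth medium. Step two, remove medium at a set time and stop with trichloroacetic acid. Step three, quantify conversion by HPLC with flow scintillation.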

[2] = target: T2, 17β-hydroxysteroid dehydrogenase type 3 (17β-HSD type 3) (Homo sapiens, UniProt P37058); test: Inhibition of 17β-HSD type 3 in MCF-7 cells stably expressing the isoenzyme (tritium labeled androstenedione conversion, HPLC); conditions: MCF-7 cells expressing 17β-HSD type 3, 2 nM tritium labeled androstenedione; for inhibition at 1 µM / inhibition at 10 µM: MCF7; for inhibition at 1 µM / % Inhibition HSD3 1 μM: 1 μM test compound; for inhibition at 1 µM: read-out: % Inhibition HSD3 1 μM; for inhibition at 10 µM / % Inhibition HSD3 10 μM: 10 μM test compound; for inhibition at 10 µM: read-out: % Inhibition HSD3 10 μM
T2 construct: expressed in transfected cells; host or cells: MCF-7
T2 sequence (P37058 1-310): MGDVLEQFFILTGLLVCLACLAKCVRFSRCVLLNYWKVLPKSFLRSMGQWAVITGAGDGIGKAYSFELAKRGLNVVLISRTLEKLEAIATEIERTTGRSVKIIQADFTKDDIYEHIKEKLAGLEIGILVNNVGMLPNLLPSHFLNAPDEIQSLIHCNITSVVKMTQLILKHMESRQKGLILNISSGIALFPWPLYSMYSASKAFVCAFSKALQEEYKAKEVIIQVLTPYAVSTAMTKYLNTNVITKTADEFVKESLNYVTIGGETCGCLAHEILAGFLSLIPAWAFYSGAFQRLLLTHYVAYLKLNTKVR
Summary of the method: as §1

[3] = target: T3, 17β-hydroxysteroid dehydrogenase type 2 (17β-HSD type 2) (Homo sapiens, UniProt P37059); test: Inhibition of 17β-HSD type 2 in MCF-7 cells stably expressing the isoenzyme (tritium labeled estradiol conversion, HPLC); conditions: MCF-7 cells expressing 17β-HSD type 2, 2 nM tritium labeled estradiol; for inhibition at 1 µM / inhibition at 10 µM: MCF7; for inhibition at 1 µM / % Inhibition HSD2 1 μM: 1 μM test compound; for inhibition at 1 µM: read-out: % Inhibition HSD2 1 μM; for inhibition at 10 µM / % Inhibition HSD2 10 μM: 10 μM test compound; for inhibition at 10 µM: read-out: % Inhibition HSD2 10 μM
T3 construct: expressed in transfected cells; host or cells: MCF-7
T3 sequence (P37059 1-387): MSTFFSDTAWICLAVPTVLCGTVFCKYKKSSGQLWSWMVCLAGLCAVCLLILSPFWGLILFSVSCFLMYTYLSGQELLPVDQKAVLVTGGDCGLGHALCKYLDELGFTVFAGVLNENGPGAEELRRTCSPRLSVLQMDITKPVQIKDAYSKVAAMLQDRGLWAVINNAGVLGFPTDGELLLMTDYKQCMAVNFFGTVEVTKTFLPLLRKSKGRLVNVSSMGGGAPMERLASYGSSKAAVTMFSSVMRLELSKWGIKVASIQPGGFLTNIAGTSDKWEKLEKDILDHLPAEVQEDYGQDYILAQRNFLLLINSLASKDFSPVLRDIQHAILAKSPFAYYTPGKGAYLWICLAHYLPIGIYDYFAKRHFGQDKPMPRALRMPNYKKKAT
Summary of the method: as §1

inhibition at 1 µM [1] [%]	inhibition at 10 µM [1] [%]	inhibition at 1 µM [2] [%]	inhibition at 10 µM [2] [%]	inhibition at 1 µM [3] [%]	inhibition at 10 µM [3] [%]	Compound	% Inhibition HSD1 1 μM [1] [%]	% Inhibition HSD1 10 μM [1] [%]	% Inhibition HSD3 1 μM [2] [%]	% Inhibition HSD3 10 μM [2] [%]	% Inhibition HSD2 1 μM [3] [%]	% Inhibition HSD2 10 μM [3] [%]
5.9	7.3	7.4	8.5	16.1	19.6	CCCCn1c(-c2cc(OC)c(OC)c(O)c2Br)nc2sc3c(O)c(Br)c(C)cc3c2c1=O [No. 699, 7-Bromo-2-(2-bromo-3-hydroxy4,5-dimethoxyphenyl)-3-butyl-8-hydroxy-6-methyl-3H-benzo[4,5]thieno[2,3-d]pyrimidin-4-one]						
32.1	72.2	31.4	37.1	44	20.9	COc1cc(-c2nc3sc4c(c3c(=O)n2Cc2ccccc2)CCC(Br)C4=O)cc(OC)c1OC (stereo not drawn) [No. 46, 3-benzyl-7-bromo-2-(3,4,5-trimethoxyphenyl)-6,7-dihydro-3H,5H-benzo[4,5]thieno[2,3-d]pyrimidine-4,8-dione]						
23.6	46.6	11.3	45.7	18.9	19.5	CCCCn1c(-c2cc(OC)c(OC)c(OC)c2)nc2sc3c(c2c1=O)CCCC3=O [No. 86, 3-Butyl-2-(3,4,5-trimethoxyphenyl)-6,7-dihydro-3H,5H-benzo[4,5]thieno[2,3-d]pyrimidine-4,8-dione]						
12	39.7	-1.3	10.8	-0.5	5.1	COCc1nc2sc3c(c2c(=O)n1Cc1ccccc1)CCCC3=O [No. 31, 3-Benzyl-2-methoxymethyl-6,7-dihydro-3H,5H-benzo[4,5]thieno[2,3-d]pyrimidine-4,8-dione]						
21.1	13.2	18.5	12.8	25	9.5	CC(=O)OCc1nc2sc3c(c2c(=O)n1-c1ccccc1)CCCC3 [No. 39, Acetic acid 4-oxo-3-phenyl-3,4,5,6,7,8-hexahydro-benzo[4,5]thieno[2,3-d]pyrimidin-2-ylmethyl ester]						
35.8	44.1	47.1	81.4	44.6	43.4	COCCn1c(-c2cccs2)nc2sc3c(c2c1=O)CCC(Br)C3=O (stereo not drawn) [No. 76, 7-Bromo-3-(2-methoxyethyl)-2-thiophen-2-yl-6,7-dihydro-3H,5H-benzo[4,5]thieno[2,3-d]pyrimidine-4,8-dione]						
23.6	21.2	19.2	21.6	25.9	25.7	COc1cc(-c2nc3sc4c(c3c(=O)n2Cc2ccccc2)CCCC4O)cc(OC)c1OC (stereo not drawn) [No. 145, 3-Benzyl-8-hydroxy-2-(3,4,5-trimethoxyphenyl)-5,6,7,8-tetrahydro-3H-benzo[4,5]thieno[2,3-d]pyrimidin-4-one]						
-14.2	24.7	3.2	44.3	25.4	45.7	CCCc1nc2sc3c(O)c(Br)ccc3c2c(=O)n1Cc1ccc(Br)o1 [No. 107, 7-Bromo-3-(5-bromofuran-2-ylmethyl)-8-hydroxy-2-propyl-3H-benzo[4,5]thieno[2,3-d]pyrimidin-4-one]						
20.6	21.5	6.8	23	25.7	24.8	COc1cc(-c2nc3sc4c(OC)cccc4c3c(=O)n2Cc2ccccc2)cc(OC)c1OC [No. 138, 3-Benzyl-8-methoxy-2-(3,4,5-trimethoxyphenyl)-3H-benzo[4,5]thieno[2,3-d]pyrimidin-4-one]						
12.7	35.1	-4.4	10.9	18.1	23.7	COc1cc(-c2nc3sc4c(c3c(=O)n2-c2ccccc2)CCCC4)cc(OC)c1OC [No. 10, 3-Phenyl-2-(3,4,5-trimethoxyphenyl)-5,6,7,8-tetrahydro-3H-benzo[4,5]thieno[2,3-d]pyrimidin-4-one]						
						CCCCC(CC)c1nc2sc3c(O)cccc3c2c(=O)n1CCc1ccccc1 (stereo not drawn) [No. 628]	11.4	32.4	12.4	36.1	−0.9	22.5
						O=c1c2c(nc(Cc3ccccc3)n1Cc1ccccc1)sc1c(O)cccc12 [No. 660]	21.7	37.1	16.6	19.9	19.8	48.9
28.8	72.5	8.1	71.1	50	86.2	CCCc1nc2sc3c(OC(C)=O)cccc3c2c(=O)n1Cc1ccc(Br)o1 [No. 106, Acetic acid 3-(5-bromofuran-2-ylmethyl)-4-oxo-2-propyl-3,4-dihydro-benzo[4,5]thieno[2,3-d]pyrimidin-8-yl ester]						
20.7	22.4	-0.9	7.6	-6.8	28.7	COCc1nc2sc3c(c2c(=O)n1-c1ccccc1)CCCC3 [No. 36, 2-Methoxymethyl-3-phenyl-5,6,7,8-tetrahydro-3H-benzo[4,5]thieno[2,3-d]pyrimidin-4-one]						
9	21.5	7.3	40.7	15.5	49	O=c1c2c(nc(-c3ccc(Br)s3)n1Cc1ccccc1)sc1c(O)cccc12 [No. 68, 3-Benzyl-2-(5-bromothiophen-2-yl)-8-hydroxy-3H-benzo[4,5]thieno[2,3-d]pyrimidin-4-one]						
10.5	55.6	-22.5	26.3	2.2	16.3	Cc1nc2sc3c(c2c(=O)n1-c1ccccc1)CCC(Br)C3=O (stereo not drawn) [No. 44, 7-Bromo-2-methyl-3-phenyl-6,7-dihydro-3H,5H-benzo[4,5]thieno[2,3-d]pyrimidine-4,8-dione]						
37.7	84.7	30.9	80.1	31.2	40.1	COc1cc(-c2nc3sc4c(c3c(=O)n2CC2CCCO2)CCCC4=O)cc(OC)c1OC (stereo not drawn) [No. 131, 3-(Tetrahydro-furan-2-ylmethyl)-2-(3,4,5-trimethoxyphenyl)-6,7-dihydro-3H,5H-benzo[4,5]thieno[2,3-d]pyrimidine-4,8-dione]						
